According to patent US20230285417A1, “FORMULATIONS OF 19-NOR C3,3-DISUBSTITUTED C21-N-PYRAZOLYL STEROID AND METHODS OF USE THEREOF” (priority 2020, published 2023):

Legend:
Assay type in all cases: physicochemical
[1] = Particle size distribution by laser diffraction (Malvern Mastersizer 2000); conditions: for D10 / D50 / D90: lot of micronized Form C of Compound 1 used in capsules of Table 16
Experimental: The particle size distribution of Compound 1 was measured using a laser diffraction method. A sample of Compound 1 was either dispersed in water or wetted and dispersed in 0.2% w/v Tween 80 in water to a final concentration spanning approximately 2.5 to 60 mg/mL. Using a Malvern Mastersizer 2000 with a Hydro 2000S sample dispersion unit the obscuration was adjusted to between 10 and 30%. The stir speed was adjusted to 2250-2500 rpm, pre-measurement delay to approximately 30 s, sample measurement time to around 10-15 s, background measurement time to around 10-15 s and the particle shape assumed to be irregular. The samples were at a concentration between 0.0032-0.0044% vol and had specific surface area between 1.65 and 2.10 m2/g, a surface weighted mean between 2.87 and 3.64 μm, and a volume weighed mean between 3.62 and 4.67 μm. The measurements were obtained using the Mie scattering model (material refractive index=1.520, dispersant refractive index=1.330, absorption=0.001 or 0.1) with normal sensitivity.
Representative particle size distribution data for lots of un-micronized and micronized Form C of Compound 1 are shown in Table 7. In addition, representative particle size distribution for micronized Form A of Compound 1 is also included in Table 7. FIG. 4A, FIG. 4B and FIG. 4C also contain particle size distribution profiles for three representative lots of micronized Form C of Compound 1. FIG. 13A and FIG. 13B contain particle size distribution profiles for micronized and un-micronized Form C of Compound 1a. FIG. 14A and FIG. 14B contain particle size distribution profiles for micronized and un-micronized Form C of Compound 1b. FIG. 15A and FIG. 15B contain particle size distribution profiles for micronized and un-micronized Form C of Compound 1c. FIG. 16A and FIG. 16B contain particle size distribution profiles for micronized and un-micronized Form C of Compound 1d.

[2] = Solubility of the compound of formula (I) in aqueous media (water, pH 1.2 simulated gastric fluid, FaSSIF)
Source text: (§1) The compound of formula (I) belongs in the high permeability, poor solubility drug classification (BCS 2) described in the Biopharmaceutics Classification System (BCS). In the improved widely accepted Developability Classification System (DCS) discussed by Butler and Dressman, the high permeability low solubility category is further divided into two classifications. Specifically, the ratio of the dose to the solubility of the drug in FaSSIF can be used to predict the extent of human absorption. Class 2a describes compounds that have good permeability and poor solubility with a smaller dose to solubility ratio. Class 2b describes compounds that have a higher dose to solubility ratio and likely will be incompletely absorbed unless the drug is formulated in an already solubilized form, and therefore might present a major challenge to the formulator. […] That is, even for a dose of 10 mg about only 1.2% of the dose of the drug may dissolve in a glass of water or FaSSIF. For Class 2b compounds the system predicts that particle reduction should have no impact on bioavailability. Martinez and Amidon offer: “In the case of solubility-limited absorption particle size exerts minimal effect on the fraction of drug absorbed. […]

[3] = Biopharmaceutics Classification System (BCS) classification; conditions: high permeability, poor solubility
Source text: as §1

[4] = lot used in Composition 30, 8 kg blend batch, 20 mg dose strength
[5] = lot used in Composition 30, 12 kg blend batch, 30 mg dose strength
[6] = lot used in Composition 30, 34.7 kg blend batch, 20 mg dose strength
[7] = lot used in Composition 30, 52 kg blend batch, 30 mg dose strength

C[C@@]1(O)CC[C@H]2[C@H](CC[C@@H]3[C@@H]2CC[C@]2(C)[C@@H](C(=O)Cn4cc(C#N)cn4)CC[C@@H]32)C1 [Lot A]
D10 ([1]; listed as A): 1.7 μm
D50 ([1]; listed as A): 3.3 μm
D90 ([1]; listed as A): 6.8 μm

C[C@@]1(O)CC[C@H]2[C@H](CC[C@@H]3[C@@H]2CC[C@]2(C)[C@@H](C(=O)Cn4cc(C#N)cn4)CC[C@@H]32)C1 [Micronized Form C of Compound 1]
Particle Size Distribution D10 [1, 4]: 1.7
Particle Size Distribution D50 [1, 4]: 3.2
Particle Size Distribution D90 [1, 4]: 6.1
Particle Size Distribution D10 [1, 5]: 1.7
Particle Size Distribution D50 [1, 5]: 3.2
Particle Size Distribution D90 [1, 5]: 6.1
Particle Size Distribution D10 [1, 6]: 1.8
Particle Size Distribution D50 [1, 6]: 3.3
Particle Size Distribution D90 [1, 6]: 6.5
Particle Size Distribution D10 [1, 7]: 2.1
Particle Size Distribution D50 [1, 7]: 4.1
Particle Size Distribution D90 [1, 7]: 8.0

C[C@@]1(O)CC[C@H]2[C@H](CC[C@@H]3[C@@H]2CC[C@]2(C)[C@@H](C(=O)Cn4cc(C#N)cn4)CC[C@@H]32)C1 [Lot B]
D10 ([1]; listed as B): 1.9 μm
D50 ([1]; listed as B): 3.5 μm
D90 ([1]; listed as B): 6.6 μm

C[C@@]1(O)CC[C@H]2[C@H](CC[C@@H]3[C@@H]2CC[C@]2(C)[C@@H](C(=O)Cn4cc(C#N)cn4)CC[C@@H]32)C1 [Compound 1, 1-(2-((3R,5R,8R,9R,10S,13S,14S,17S)-3-hydroxy-3,13-dimethylhexadecahydro-1H-cyclopenta[a]phenanthren-17-yl)-2-oxoethyl)-1H-pyrazole-4-carbonitrile]
% of the dose that may dissolve in a glass of water or FaSSIF ([2]; 10 mg dose): ~1.2%
solubility in aqueous media ([2]; water, pH 1.2 simulated gastric fluid, FaSSIF): practically insoluble
drug classification, Biopharmaceutics Classification System (BCS) [3]: BCS 2

C[C@@]1(O)CC[C@H]2[C@H](CC[C@@H]3[C@@H]2CC[C@]2(C)[C@@H](C(=O)Cn4cc(C#N)cn4)CC[C@@H]32)C1 [Lot C]
D10 ([1]; listed as C): 2.1 μm
D50 ([1]; listed as C): 4.0 μm
D90 ([1]; listed as C): 7.7 μm
